The text below walks through data of patent publication EP0966282B1, “USE OF THE ANGIOTENSIN II ANTAGONISTS LOSARTAN AND EXP-3174 TO TREAT SYMPTOMATIC HEART FAILURE” (priority 1997, dated 1998).

Read-outs that look alike come from different tables or passages of the source.

In this test the test system is older patients with symptomatic heart failure. The following applies: for hospitalized overall for any reason: 48-week study observation period, p=0.018. The source says:
The study was approved by institutional review boards at each site; all patients gave written informed consent. An independent Data and Safety Monitoring Committee monitored the progress of the study. See Pitt B, Chang P, Timmermans P. Angiotensin II receptor antagonists in heart failure: Rationale and design of the Evaluation of Losartan in the Elderly (ELITE) Trial. Cardiovascular Drugs and Therapy 1995; 9: 693-700.
A detailed description of enrollment and exclusion criteria and study design has been presented previously. See Pitt B, Chang P, Timmermans P. Angiotensin II receptor antagonists in heart failure: Rationale and design of the Evaluation of Losartan in the Elderly (ELITE) Trial. Cardiovascular Drugs and Therapy 1995; 9: 693-700.
Titration generally occurred at 7-day intervals as tolerated. Treatment with all other concomitant cardiovascular therapies was permitted with the exception of open-label ACE inhibitors. Randomized patients were stratified by age (less than 70 and 70 years or greater).
Clinical assessments were performed weekly during titration and at three-month intervals thereafter. Laboratory evaluations were performed at weeks three, six, and twelve, and at three month intervals thereafter.
See Example 2) Hypotension-related symptoms, clinically important serum potassium increases (≥ 0.5 mEq/L), and cough, all originally secondary endpoints, were moved to tertiary endpoints. All deaths (including cause of death) and hospitalizations were adjudicated by an independent Clinical Endpoint Adjudication Committee, blinded to study treatment (see panel for mortality classification). Other prospectively-defined measures included myocardial infarction/hospitalization for unstable angina, worsening of heart failure, New York Heart Association functional classification, discontinuation from the study due to study drug intolerance, changes in neurohormonal profile.
• Sudden Cardiac Death: Death occurring without warning or within 1 hour of symptoms • Death due to Progressive Heart Failure: Death preceded by worsening signs and/or symptoms of heart failure, including cardiogenic shock • Fatal Myocardial Infarction: Death associated with autopsy-verified myocardial infarction or death within 28 days of a hospital-verified acute myocardial infarction provided no other cardiac or non-cardiac cause of death is found • Death due to Other Cardiac Causes: Death due to other cardiac causes, such as arrhythmia • Death due to Other Vascular Causes: Death due to vascular events such as stroke, pulmonary embolus, ruptured aneurysm, etc. • Death due to non-cardiovascular causes: Death not due to any cardiac or vascular events
The power and sample-size estimates for this study have been described. See Pitt B, Chang P, Timmermans P. Angiotensin II receptor antagonists in heart failure: Rationale and design of the Evaluation of Losartan in the Elderly (ELITE) Trial. Cardiovascular Drugs and Therapy 1995; 9: 693-700. Analysis of renal dysfunction (increases in serum creatinine) was based upon a modified intent-to-treat population; i.e., all patients were analyzed according to their randomization group, and an endpoint was declared only if initial and confirmatory elevations occurred while on double-blind therapy. Patients who discontinued from the study without meeting this endpoint were censored in the time-to-event analysis at the time of study discontinuation.
Analyses of deaths and heart failure hospitalizations (adjudicated endpoints) were based on an intent-to-treat population; all patients discontinued prematurely were followed through the specified 48-week period of the study. Patients not meeting the endpoint were censored in the time-to-event analysis either at the time of study completion (for patients who completed) or at the end of the 48-week follow-up period (for patients who discontinued).
For all time-to-event data, survival analyses were based upon the log-rank test.

On to `C[C@H](CS)C(=O)N1CCC[C@H]1C(=O)O` [Captopril, captopril, reference compound], for which the “hospitalized overall for any reason” value turned out to be 32.2%. Under “number of patients”, the “hospitalized overall for any reason” value was 119 patients and the Fatal myocardial infarction entry is on record as “four”. The “incidence of heart failure hospitalizations” value (48 weeks) is 5.7%. Moreover, the “incidence of death due to progressive heart failure” value (human, in vivo) is reported as “less than one”. For the same compound, for the setting “intent-to-treat, 48 weeks”, the “Cause of death: Cardiovascular, Fatal Myocardial Infarction” value was 4 ( 1.1) number (percent) of patients; the “Cause of death: Cardiovascular, Other Vascular” value is 5 ( 1.4) number (percent) of patients; the “Cause of death: Cardiovascular, Progressive Heart Failure” value was 1 ( 0.3) number (percent) of patients; the “Cause of death: Cardiovascular, Sudden Death” value is 14 ( 3.8) number (percent) of patients. Moreover, under “intent-to-treat, 48 weeks”, the “Cause of death: Non-cardiovascular” value was 8 ( 2.2) number (percent) of patients, the “Death and/or Hospitalization for Heart Failure” value is 49 (13.2) number (percent) of patients, the “Hospitalization for Heart Failure” value is listed as 21 ( 5.7) number (percent) of patients and the “total mortality” value is reported as 32 ( 8.7) number (percent) of patients. Moreover, the “died of progressive heart failure” value (number of patients in each treatment group) is “one”. This compound also returned a total mortality (number of patients, p=0.035) of 32 patients. For the setting “number of patients, p=0.043”, this compound came in with a sudden cardiac death of 14 patients. Under “of 352 losartan-treated, of 370 captopril-treated patients”, the “death and/or heart failure hospitalizations” value was determined as 49 patients. Moreover, the “death and/or heart failure hospitalizations” value (percent of patients, p=0.075) is given as 13.2%. Besides, the female patients died (subpopulation of female patients: of 118 losartan-treated, of 122 captopril-treated) is listed as 8 patients. The “patients classified as New York Heart Association Class I or II at the end of the study” value (week 48, versus 66 percent (losartan) and 64 percent (captopril) at baseline) is given as 82%.
